# From PubChem BioAssay (NCI)
#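 Method: 48-hour compound exposure of cells in 96-well plates, five concentrations, linear interpolation of endpoints. TGI marks complete inhibition of growth.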
# Columns and labels:
# Test in all cases: NCI-60 cell line screen, 48 h
# A549 NSCLC = system: A549 NSCLC
# ACHN renal = system: ACHN renal
# COLO 205 colon = system: COLO 205 colon
# HCT-15 colon = system: HCT-15 colon
# HOP-92 NSCLC = system: HOP-92 NSCLC
# HT29 colon = system: HT29 colon
# K-562 leukemia = system: K-562 leukemia
# LOX IMVI melanoma = system: LOX IMVI melanoma
# M14 melanoma = system: M14 melanoma
# MOLT-4 leukemia = system: MOLT-4 leukemia
# OVCAR-4 ovarian = system: OVCAR-4 ovarian
# OVCAR-5 ovarian = system: OVCAR-5 ovarian
# OVCAR-8 ovarian = system: OVCAR-8 ovarian
# RPMI-8226 leukemia = system: RPMI-8226 leukemia
# SK-OV-3 ovarian = system: SK-OV-3 ovarian
# SNB-19 CNS = system: SNB-19 CNS
# SNB-75 CNS = system: SNB-75 CNS
# U251 CNS = system: U251 CNS
# UACC-62 melanoma = system: UACC-62 melanoma
# UACC-257 melanoma = system: UACC-257 melanoma
Compound,TGI (A549 NSCLC) [µM],TGI (ACHN renal) [µM],TGI (COLO 205 colon) [µM],TGI (HCT-15 colon) [µM],TGI (HOP-92 NSCLC) [µM],TGI (HT29 colon) [µM],TGI (K-562 leukemia) [µM],TGI (LOX IMVI melanoma) [µM],TGI (M14 melanoma) [µM],TGI (MOLT-4 leukemia) [µM],TGI (OVCAR-4 ovarian) [µM],TGI (OVCAR-5 ovarian) [µM],TGI (OVCAR-8 ovarian) [µM],TGI (RPMI-8226 leukemia) [µM],TGI (SK-OV-3 ovarian) [µM],TGI (SNB-19 CNS) [µM],TGI (SNB-75 CNS) [µM],TGI (U251 CNS) [µM],TGI (UACC-62 melanoma) [µM],TGI (UACC-257 melanoma) [µM]
Cc1cc(C)nc(NS(=O)(=O)c2ccc(Nc3c4ccccc4nc4c(C(=O)NCCO)cccc34)cc2)n1,> 100,> 100,31.3,46,> 100,38.3,> 100,25.5,65,> 100,97.5,91.7,> 100,36.5,> 100,> 100,21.6,> 100,> 100,
O=C(NN1C(=O)CSC1c1ccc(Cl)c(Cl)c1)c1ccncc1 (configuration not stated),> 100,> 100,> 100,> 100,,> 100,> 100,> 100,> 100,> 100,> 100,> 100,> 100,> 100,> 100,> 100,> 100,> 100,> 100,> 100
CCOC(=O)c1csc(NC(=O)CCCC#N)n1,> 100,> 100,> 100,> 100,> 100,> 100,> 100,> 100,> 100,> 100,> 100,> 100,> 100,> 100,> 100,> 100,> 100,> 100,> 100,> 100
COc1ccc(/C(C)=N/NC(=S)N(C)C)c(O)c1,> 100,> 100,12.4,,98.8,> 100,,12.4,> 100,> 100,9.48,> 100,,> 100,> 100,> 100,> 100,> 100,20.1,77.7
O=c1c2cc3c(=O)n(CCc4ccccc4CO)c(=O)c3cc2c(=O)n1CCc1ccccc1CO,> 100,> 100,,> 100,,> 100,> 100,> 100,,> 100,> 100,,> 100,,> 100,> 100,> 100,> 100,> 100,> 100
CCOC(=O)C1=C(C)NC(=O)N([N+](=O)[O-])C1c1ccccc1C(F)(F)F (configuration not stated),> 100,> 100,> 100,> 100,> 100,> 100,> 100,> 100,> 100,> 100,> 100,> 100,> 100,72.4,> 100,> 100,,> 100,> 100,> 100
c1ccc([P+](Cc2csnn2)(c2ccccc2)c2ccccc2)cc1,> 100,> 100,> 100,> 100,> 100,> 100,,> 100,> 100,> 100,> 100,> 100,> 100,> 100,> 100,> 100,> 100,> 100,> 100,> 100
CCc1cc(=O)n(/C(C)=C/c2ccccc2)n1C,> 100,> 100,> 100,,> 100,> 100,> 100,> 100,> 100,> 100,> 100,> 100,> 100,> 100,> 100,> 100,> 100,> 100,> 100,> 100
